Values quoted from earlier work, collected in US11823773B2, “Nant cancer vaccine strategies” (Nant Holdings IP, LLC, priority 2018, dated 2023).

In the case of `CC(C)(C)c1nc(-c2cccc(NS(=O)(=O)c3c(F)cccc3F)c2F)c(-c2ccnc(N)n2)s1` [Dabrafenib], the “PFS compared to dacarbazine” value (advanced melanoma; human, in vivo) is listed as “improvement in PFS”.

In the case of `O=C(c1ccc(F)c(F)c1Nc1ccc(I)cc1F)N1CC(O)([C@@H]2CCCCN2)C1` [cobimetinib], the “PFS over vemurafenib treatment alone” value (advanced melanoma; in combination with vemurafenib) is listed as “significant increase in PFS”.

In the case of rituximab: anti-CD20 antibody, the “response rate to single agent retreatment” value (CD20-positive NHL; rituximab refractory (RR) patients, reasonable estimate, no trial data reported) is listed as less than 5% and the “patients responding to retreatment” value (CD20-positive NHL; rituximab sensitive (RS) patients) is listed as “approximately 40%”.
